How the values were obtained:
Type in all cases: cell-based
[1] = molecular target: Ba/F3 EML4-ALK v1 I1171N/D1203N (Homo sapiens (Human), UniProt Q9HC35+Q9UM73, D1203N/I1171N); assay: Ba/F3 cell proliferation assay, EML4-ALK v1 I1171N/D1203N; details: for IC50: Ba/F3 stable cells, 72 hours, CellTiter-Glo; for ETV6-TRKB / EML4-ALK v1 I1171N/D1203N / Selectivity for Ba/F3 EML4-ALK v1 I1171N-D1203N IC50 over Ba/F3 ETV6-TRKB IC50: TRKB selectivity, ratio of Ba/F3 IC50 values; for Selectivity for Ba/F3 EML4-ALK v1 I1171N-D1203N IC50 over Ba/F3 ETV6-TRKB IC50: Table 6 bins
Ba/F3 EML4-ALK v1 I1171N/D1203N, sequence (Q9UM73 other isoform, or with tags, fused parts or gaps I1171N/D1203N): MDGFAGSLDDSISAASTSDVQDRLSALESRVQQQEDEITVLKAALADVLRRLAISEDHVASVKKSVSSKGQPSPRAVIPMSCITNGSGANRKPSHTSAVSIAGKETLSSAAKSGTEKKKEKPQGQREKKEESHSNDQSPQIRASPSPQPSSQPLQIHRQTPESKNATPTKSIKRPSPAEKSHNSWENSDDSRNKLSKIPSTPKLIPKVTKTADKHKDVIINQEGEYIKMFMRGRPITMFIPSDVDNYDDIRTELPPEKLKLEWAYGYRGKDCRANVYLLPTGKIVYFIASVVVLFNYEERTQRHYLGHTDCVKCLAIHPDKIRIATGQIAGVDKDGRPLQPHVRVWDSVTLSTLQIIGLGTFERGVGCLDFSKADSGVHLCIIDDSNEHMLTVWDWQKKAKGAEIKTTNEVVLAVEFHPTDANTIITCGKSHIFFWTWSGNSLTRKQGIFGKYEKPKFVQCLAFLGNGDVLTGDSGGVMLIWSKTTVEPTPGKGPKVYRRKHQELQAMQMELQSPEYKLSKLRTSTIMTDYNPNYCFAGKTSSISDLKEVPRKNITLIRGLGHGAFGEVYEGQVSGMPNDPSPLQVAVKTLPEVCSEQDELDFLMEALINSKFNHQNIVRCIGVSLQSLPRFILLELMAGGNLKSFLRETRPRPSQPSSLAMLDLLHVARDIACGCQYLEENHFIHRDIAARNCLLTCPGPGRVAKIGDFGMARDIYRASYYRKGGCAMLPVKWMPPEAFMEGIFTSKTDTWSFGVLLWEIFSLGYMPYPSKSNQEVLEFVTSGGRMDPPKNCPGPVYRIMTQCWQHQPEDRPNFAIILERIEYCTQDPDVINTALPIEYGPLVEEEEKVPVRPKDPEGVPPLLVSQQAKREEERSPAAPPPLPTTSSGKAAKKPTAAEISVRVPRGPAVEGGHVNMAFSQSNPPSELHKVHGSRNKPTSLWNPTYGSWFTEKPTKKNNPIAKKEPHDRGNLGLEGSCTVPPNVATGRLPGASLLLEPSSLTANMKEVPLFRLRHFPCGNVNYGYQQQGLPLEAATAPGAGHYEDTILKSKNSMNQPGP
Source text: (§1) Genes encoding EML4-ALK v1 (variant 1), EML4-ALK v1 G1202R, EML4-ALK v1 I1171IN, EML4-ALK v1 D1203N, EML4-ALK v1 I1171N/D1203N, and ETV6-TRKB were synthesized at GeneRay, cloned into the retroviral construct pMSCV-puro (Biovector), and packaged into retroviral particles. The virus was used to infect Ba/F3 cells (RIKEN) at multiplicity of infection=1 for 1 day. Infected cells were rescued in media (RPMI-1640 with 10% fetal bovine serum and 1% streptomycin and penicillin) supplemented with mouse IL-3 (10 ng/mL) for 2 days, and stable cell lines were selected by IL-3 withdrawal and puromycin (0.8 μg/mL) for 7 days. Monoclones were selected by single-cell dilution in IL-3-free medium containing puromycin (0.8 μg/mL). Transformation of desired genes was confirmed by Sanger sequencing and western blot using the following antibodies: ALK (CST #3633) and pan-TRK (Abcam #76291).
(§2) Stable cells were plated in a 384-well plate. Test compounds were then added in a 3-fold dilution series and incubated for 72 hours. CellTiter-Glo reagent (Promega) was added. Luminescence was measured on a plate reader. Half-maximal inhibitory concentration (ICso) was calculated from percent inhibition and inhibitor concentration using four-parameter logistic regression. Compound potency can be interpreted by binning IC50 values: bin A for high potency, 0.1 nM IC50<50 nM; bin B for medium potency, 50 nM<IC50<500 nM; and bin C for low potency, IC50>500 nM. […] Exemplary data is given in Table 4 (nd is not determined).
(§3) Ba/F3 proliferation is driven by the transduced oncogenes in the same way that cancer cell proliferation in humans is driven by the expression of equivalent oncogenes.
(§4) TRKB selectivity was calculated by dividing a compound's TRKB potency by its primary target potency (e.g., ETV6-TRKB IC50/EML4-ALK v1 IC50). Compound selectivity can be interpreted by binning ratio values: bin A for very high selectivity, ratio≥30-fold; bin B for high selectivity, ratio≥10-fold but<30; bin C for moderate selectivity, ratio≥1 but<10; and bin D for low selectivity, ratio<1. […] (nd=not determined).
Additional exemplified compounds were also tested against ALK-INDN and TRKB. The TRKB selectivity was calculated by dividing a compound's TRKB potency by its primary target potency (e.g., ETV6-TRKB IC50/EMIL4-ALK I1171N-D1203N v1 IC50). Compound selectivity can be interpreted by binning ratio values: bin AA for the selectivity with the ratio≥30-fold; bin BB for the selectivity with the ratio≥10-fold but<30; bin CC for the selectivity with the ratio≥5 but<10; bin DD for the selectivity with the ratio≥1 but<5; and bin EE for the selectivity with the ratio<1.

Ba/F3 ETV6-TRKB = Ba/F3 ETV6-TRKB (Homo sapiens, UniProt Q16620); assay: Ba/F3 cell proliferation assay, ETV6-TRKB; details: Ba/F3 stable cells, 72 hours, CellTiter-Glo; read-out: ETV6-TRKB IC50
Ba/F3 ETV6-TRKB, sequence (Q16620 32-822 limits assumed, change not shown): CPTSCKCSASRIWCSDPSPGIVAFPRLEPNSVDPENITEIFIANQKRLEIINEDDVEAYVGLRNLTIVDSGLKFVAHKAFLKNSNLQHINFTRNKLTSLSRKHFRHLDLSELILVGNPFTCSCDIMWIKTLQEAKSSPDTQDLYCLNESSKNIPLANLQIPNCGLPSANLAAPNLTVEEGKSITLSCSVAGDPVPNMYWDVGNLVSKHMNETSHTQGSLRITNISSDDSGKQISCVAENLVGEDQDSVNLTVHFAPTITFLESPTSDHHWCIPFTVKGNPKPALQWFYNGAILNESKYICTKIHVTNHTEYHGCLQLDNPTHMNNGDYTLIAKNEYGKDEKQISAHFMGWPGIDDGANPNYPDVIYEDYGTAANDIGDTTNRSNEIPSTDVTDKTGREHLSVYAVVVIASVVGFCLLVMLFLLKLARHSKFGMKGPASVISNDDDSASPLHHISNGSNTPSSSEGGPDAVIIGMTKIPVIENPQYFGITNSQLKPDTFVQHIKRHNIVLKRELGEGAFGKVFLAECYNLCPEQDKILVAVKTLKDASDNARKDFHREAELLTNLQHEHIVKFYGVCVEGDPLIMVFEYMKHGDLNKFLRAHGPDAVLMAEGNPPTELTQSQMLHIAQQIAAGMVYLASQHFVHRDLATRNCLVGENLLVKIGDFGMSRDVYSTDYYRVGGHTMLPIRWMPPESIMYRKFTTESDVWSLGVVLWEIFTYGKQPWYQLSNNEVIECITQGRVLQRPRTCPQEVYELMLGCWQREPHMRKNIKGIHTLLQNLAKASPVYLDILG
Source text: as §1, §2, §3

Ba/F3 EML4-ALK v1 I1171N = Ba/F3 EML4-ALK v1 I1171N (Homo sapiens (Human), UniProt Q9HC35+Q9UM73, I1171N); assay: Ba/F3 cell proliferation assay, EML4-ALK v1 I1171N; details: for IC50: Ba/F3 stable cells, 72 hours, CellTiter-Glo; for ETV6-TRKB / EML4-ALK v1 I1171N: TRKB selectivity, ratio of Ba/F3 IC50 values
Ba/F3 EML4-ALK v1 I1171N, sequence (Q9UM73 other isoform, or with tags, fused parts or gaps I1171N): as the sequence (Q9UM73 other isoform, or with tags, fused parts or gaps I1171N/D1203N) above, with N642D counted along it
Source text: as §1, §2, §3, §4

IC50 [1] [nM]	IC50 (Ba/F3 ETV6-TRKB) [nM]	IC50 (Ba/F3 EML4-ALK v1 I1171N) [nM]	Molecule	ETV6-TRKB / EML4-ALK v1 I1171N/D1203N [1]	Selectivity for Ba/F3 EML4-ALK v1 I1171N-D1203N IC50 over Ba/F3 ETV6-TRKB IC50 [1]	ETV6-TRKB / EML4-ALK v1 I1171N (Ba/F3 EML4-ALK v1 I1171N)
> 500	> 500	> 500	C[C@H]1Oc2cc(cnc2N)-c2c(cnn2CC2CC2)C(=O)c2cccnc2-c2ccc(F)cc21 [Example 29, (R)-23-amino-3-(cyclopropylmethyl)-17-fluoro-20-methyl-21-oxa-3,4, 12,24-tetraazapentacyclo[20.3.1.0^2,^6.0^8,^13.0^14,^19]hexacosa-1(25),2(6),4,8(13),9,11,14,16,18,22(26),23-undecaen-7-one]	B (bin B for high selectivity, ratio≥10-fold but<30)	BB (bin BB for the selectivity with the ratio≥10-fold but<30)	B (bin B for high selectivity, ratio≥10-fold but<30)
0.1 to 50	0.1 to 50	0.1 to 50	CCc1c2c(nn1C)C(=O)c1cccnc1-c1ccc(F)cc1[C@@H](C)Oc1cc-2cnc1N [Example 54, (R)-23-amino-3-ethyl-17-fluoro-4-methyl-20-methyl-21-oxa-4,5,12,24-tetraazapentacyclo[20.3.1.0^2,^6.0^8,^13.0^14,^19]hexacosa-1(25),2,5,8,10,12,14,16,18,22(26),23-undecaen-7-one]	B (bin B for high selectivity, ratio≥10-fold but<30)		C (bin C for moderate selectivity, ratio≥1 but<10)
0.1 to 50	50 to 500	0.1 to 50	Cc1nc2c(s1)C(=O)c1nn(C)c(C#N)c1-c1cnc(N)c(c1)O[C@H](C)c1cc(F)ccc1-2 [Example 73, (R)-22-amino-16-fluoro-4-methyl-10,19-dimethyl-7-oxo-20-oxa-9-thia-4,5,11,23-tetraazapentacyclo[19.3.1.0^2,^6.0^8,^12.0^13,^18]pentacosa-1(24),2,5,8(12),10,13,15,17,21(25),22-decaene-3-carbonitrile]			
0.1 to 50	> 500	0.1 to 50	C[C@H]1Oc2cc(cnc2N)-c2c(nn(C)c2C#N)C(=O)c2scnc2-c2c(F)cc(F)cc21 [Example 81, (R)-22-amino-14,16-difluoro-4-methyl-19-methyl-7-oxo-20-oxa-9-thia-4,5,11,23-tetraazapentacyclo[19.3.1.0^2,^6.0^8,^12.0^13,^18]pentacosa-1(24),2,5,8(12),10,13,15,17,21(25),22-decaene-3-carbonitrile]	A (bin A for very high selectivity, ratio≥30-fold)		A (bin A for very high selectivity, ratio≥30-fold)
0.1 to 50	50 to 500	0.1 to 50	CC(C)n1nc2c(c1C#N)-c1cnc(N)c(c1)O[C@H](C)c1cc(F)ccc1-c1ncccc1C2=O [Example 51, (R)-23-amino-17-fluoro-4-isopropyl-20-methyl-7-oxo-21-oxa-4,5,12,24-tetraazapentacyclo[20.3.1.0^2,^6.0^8,^13.0^14,^19]hexacosa-1(25),2,5,8,10,12,14,16,18,22(26),23-undecaene-3-carbonitrile]	A (bin A for very high selectivity, ratio≥30-fold)	AA (bin AA for the selectivity with the ratio≥30-fold)	A (bin A for very high selectivity, ratio≥30-fold)
0.1 to 50	0.1 to 50		CCc1nn(C(=O)N(C)C)c2c1-c1cnc(N)c(c1)O[C@H](C)c1cc(F)ccc1-c1ncccc1C2 [Example 24, (R)-5-(N,N-dimethylcarbamoyl)-3-ethyl-17-fluoro-20-methyl-21-oxa-4,5,12,24-tetraazapentacyclo[20.3.1.0^2,^6.0^8,^13.0^14,^19]hexacosa-1(25),2(6),3,8(13),9,11,14,16,18,22(26),23-undecaen-23-ylamine]	C (bin C for moderate selectivity, ratio≥1 but<10)		
0.1 to 50	50 to 500		Cc1cc2n(n1)-c1ccc(F)cc1[C@@H](C)Oc1cc(cnc1N)-c1c(c(C(=O)N(C)C)nn1C1CCC1)C2 [Example 67, N,N-dimethyl-(R)-22-amino-3-cyclobutyl-16-fluoro-10,19-dimethyl-20-oxa-3,4,11,12,23-pentaazapentacyclo[19.3.1.0^2,^6.0^8,^12.0^13,^18]pentacosa-1(24),2(6),4,8,10,13,15,17,21(25),22-decaene-5-carboxamide]			
50 to 500	> 500		CC(C)N(C)C(=O)c1nn(CC2CC2)c2c1Cc1cn(C)nc1-c1ccc(F)cc1[C@@H](C)Oc1cc-2cnc1N [Example 37, N-isopropyl-N-methyl-(R)-22-amino-3-(cyclopropylmethyl)-16-fluoro-10-methyl-19-methyl-20-oxa-3,4,10,11,23-pentaazapentacyclo[19.3.1.0^2,^6.0^8,^12.0^13,^18]pentacosa-1(24),2(6),4,8,11,13,15,17,21(25),22-decaene-5-carboxamide]			
50 to 500	> 500		Cc1cc2n(n1)-c1c(F)cc(F)cc1[C@@H](C)Oc1cc(cnc1N)-c1c(nn(C)c1C#N)C2=O [Example 68, (R)-22-amino-14,16-difluoro-4-methyl-10,19-dimethyl-7-oxo-20-oxa-4,5,11,12,23-pentaazapentacyclo[19.3.1.0^2,^6.0^8,^12.0^13,^18]pentacosa-1(24),2,5,8,10,13,15,17,21(25),22-decaene-3-carbonitrile]			

Molecule	IC50 [1] [nM]	IC50 (Ba/F3 ETV6-TRKB) [nM]	IC50 (Ba/F3 EML4-ALK v1 I1171N) [nM]	ETV6-TRKB / EML4-ALK v1 I1171N/D1203N [1]	Selectivity for Ba/F3 EML4-ALK v1 I1171N-D1203N IC50 over Ba/F3 ETV6-TRKB IC50 [1]	ETV6-TRKB / EML4-ALK v1 I1171N (Ba/F3 EML4-ALK v1 I1171N)
Cc1cc2n(n1)-c1c(F)cc(F)cc1[C@@H](C)Oc1cc(cnc1N)-c1c(C#N)nn(C)c1C2=O [Example 69, (R)-22-amino-14,16-difluoro-5-methyl-10,19-dimethyl-7-oxo-20-oxa-4,5,11,12,23-pentaazapentacyclo[19.3.1.0^2,^6.0^8,^12.0^13,^18]pentacosa-1(24),2(6),3,8,10,13,15, 17,21(25),22-decaene-3-carbonitrile]	0.1 to 50	50 to 500		B (bin B for high selectivity, ratio≥10-fold but<30)		
C[C@H]1Oc2cc(cnc2N)-c2c(nn(C)c2C#N)Oc2cccnc2-c2ccc(F)cc21 [Example 59, (R)-23-amino-17-fluoro-4-methyl-20-methyl-7,21-dioxa-4,5,12,24-tetraazapentacyclo[20.3.1.0^2,^6.0^8,^13.0^14,^19]hexacosa-1(25),2,5,8(13),9,11,14,16,18,22(26),23-undecaene-3-carbonitrile]	0.1 to 50	50 to 500		B (bin B for high selectivity, ratio≥10-fold but<30)		
(7S,20R)-23-amino-17-fluoro-7-hydroxy-4-methyl-20-methyl-21-oxa-4,5,12,24-tetraazapentacyclo[20.3.1.0^2,6.0^8,13.0^14,19]hexacosa-1(25),2,5,8(13),9,11,14,16,18,22(26),23-undecaene-3-carbonitrile [Example 78]	50 to 500	> 500		B (bin B for high selectivity, ratio≥10-fold but<30)		
C[C@H]1Oc2nc(cnc2N)-c2c(nn(C)c2C#N)C(=O)c2cccnc2-c2ccc(F)cc21 [Example 75, (R)-23-amino-17-fluoro-4-methyl-20-methyl-7-oxo-21-oxa-4,5,12,24,26-pentaazapentacyclo[20.3.1.0^2,^6.0^8,^13.0^14,^19]hexacosa-1(25),2,5,8(13),9,11,14,16,18,22(26),23-undecaene-3-carbonitrile]	0.1 to 50	0.1 to 50		A (bin A for very high selectivity, ratio≥30-fold)		

— patent publication US20250326769A1, “HETEROAROMATIC MACROCYCLIC ETHER CHEMOTHERAPEUTIC AGENTS” (Nuvalent, Inc., priority 2022, published 2025)
